Measurements published in patent publication US20080254993A1, “Use of abscisic acid analogs to enhance growth control” (priority 2007, published 2008).

Experiments:
[1] = system: Kentucky bluegrass; experiment: Greenhouse study on Kentucky bluegrass: turfgrass height, clip weight, turfgrass quality (Example 1); type: in vivo
Experimental: Greenhouse studies were conducted at the Research Farm of Valent BioSciences Corporation (Long Grove, Ill.). Grasses were grown in pots (18 cm in diameter and 18 cm in height) filled with Promix BX (available from Premier Horticulture Inc. Quakertown, Pa.). Grass was irrigated daily by an overhead irrigation system. The irrigation system was set up with multiple Tornado Mist Spray Heads (10 GPH at 40 PSI-Wetted diameter, NDS/Raindrip, Woodland Hills, Calif.). Spray heads were 1-meter apart from each other and 75 cm above grass canopy. Grass was cut with a scissor at 2.5 cm height and fertilizer (1 g/L all purpose fertilizer 20-20-20, available from The Scotts Company, Marysville, Ohio) was applied once per week.
Chemical solutions were prepared with distilled water. Tween 20 (0.05% v/v) was used as the surfactant when necessary. Trinexapac-ethyl (commercial product Primo Maxx, 11.3% active ingredient) was purchased from Syngenta Crop Protection Inc. (Greensboro, N.C.). ABA analogs, 8′ acetylene-ABA, acid (PBI-524), 8′ acetylene-ABA, ester (PBI-429), 8′ cyclopropane ester (PBI-696), or Tetralone, first carbon tail acetylene, ester (PBI-702), were obtained from Plant Biotechnology Institute, National Research Council of Canada (Saskatoon, Saskatchewan, Canada).
Chemical solutions were foliar applied to the turfgrass canopy at the rate of 4-gallons/1000 square foot (or 0.163 L/m^−2) immediately after finishing the preparation of solutions. After treatment, turfgrasses were arranged in a randomized complete block experimental design. Turfgrass quality, turfgrass height or clip fresh weight was measured on assigned dates. Turfgrass quality was visually rated on a 0-9 scale based on the color, uniformity, and density of the grass with 0 as the worst and 9 as the best. Turfgrass height was measured as the distance between canopy surface and soil. Clippings were collected form each plot; all plots were cut to a uniform height.
All experiments were randomized complete block experimental design. Data were analyzed by analysis of variance. Duncan's new multiple range tests at α=0.05 were used for mean separations.
Kentucky bluegrass sod was purchased from Deak sod farms, Inc. (Union Grove, Wis.). Grass was grown in the greenhouse for 94 days for establishment. Turfgrass was treated with one time foliar application of 50 ppm PBI-524, PBI-429, PBI-696 or PBI-702 alone or in combination with 250 ppm trinexapac-ethyl. The turfgrass was cut every 7 days. Turfgrass quality, turfgrass height, and clip weight were measured on days 7 and 35 after treatment.

[2] = system: tomato; experiment: Tomato leaf transpiration, greenhouse, porometer (Example 5); type: in vivo, Tomato (variety: Rutgers)
From the text: (§1) The effect of ABA analog (PBI-429) and trinexapac-ethyl combinations on transpiration and growth inhibition of dicotyledonous (tomato) was also examined in the greenhouse condition. Tomato (variety: Rutgers) seeds were sown in 18-cell flat filled with Promix PGX (available from Premier Horticulture Inc. Quakertown, Pa.) and grown for 3 weeks to allow for germination and initial growth. Plants were then transplanted into pots (18 cm in diameter and 18 cm in height), filled with Promix BX (available from Premier Horticulture Inc. Quakertown, Pa.), and grown for one week before the chemical treatment. Plants received daily irrigation and weekly fertilizer (1 g/L all purpose fertilizer 20-20-20, available from The Scotts Company, Marysville, Ohio). During the chemical treatment, a 24 mL (4 mL/plant) solution was foliar sprayed on the tomato canopy. Leaf transpiration rates were measured using a LI-1600 Steady State Porometer (LI-Cor, Lincoln, Nebr.) at 3, 5, 7, 10, and 14 days after treatment. The leaf transpiration rate was normalized to the percentage of control plant to minimize the experimental errors caused by environmental factors. Plant height was measured at 0, 3, 5, 7, 10 and 14 days after treatment. The growth rate was calculated based on the changes of plant height in certain intervals. The plants were harvested and the leaf number was counted at 14 days after treatment.

[3] = system: tomato; experiment: Tomato plant height, growth rate and leaf number, greenhouse (Example 5); type: in vivo, Tomato (variety: Rutgers)
From the text: as §1

[4] = 7 days after treatment, 250 ppm trinexapac-ethyl alone
[5] = 35 days after treatment, 250 ppm trinexapac-ethyl alone
[6] = 250 ppm trinexapac-ethyl, 3 days after treatment
[7] = 250 ppm trinexapac-ethyl, 5 days after treatment
[8] = 250 ppm trinexapac-ethyl, 7 days after treatment
[9] = 250 ppm trinexapac-ethyl, 10 days after treatment
[10] = 250 ppm trinexapac-ethyl, 14 days after treatment
[11] = 500 ppm trinexapac-ethyl, 3 days after treatment
[12] = 500 ppm trinexapac-ethyl, 5 days after treatment
[13] = 500 ppm trinexapac-ethyl, 7 days after treatment
[14] = 500 ppm trinexapac-ethyl, 10 days after treatment
[15] = 500 ppm trinexapac-ethyl, 14 days after treatment
[16] = 1000 ppm trinexapac-ethyl, 3 days after treatment
[17] = 1000 ppm trinexapac-ethyl, 5 days after treatment
[18] = 1000 ppm trinexapac-ethyl, 7 days after treatment
[19] = 1000 ppm trinexapac-ethyl, 10 days after treatment
[20] = 1000 ppm trinexapac-ethyl, 14 days after treatment
[21] = 2000 ppm trinexapac-ethyl, 3 days after treatment
[22] = 2000 ppm trinexapac-ethyl, 5 days after treatment
[23] = 2000 ppm trinexapac-ethyl, 7 days after treatment
[24] = 2000 ppm trinexapac-ethyl, 10 days after treatment
[25] = 2000 ppm trinexapac-ethyl, 14 days after treatment
[26] = PBI-429 25-200 ppm, trinexapac-ethyl 250-2000 ppm, alone or combined

CCOC(=O)C1CC(=O)C(=C(O)C2CC2)C(=O)C1 (stereo not drawn) [trinexapac-ethyl, reference compound]
Clip Weight [1, 4]: 0.5 g | Turfgrass height [1, 4]: 6.0 cm | Turfgrass quality ([1]; 7 days after treatment, 250 ppm trinexapac-ethyl alone, visual 0-9 scale, 9 best): 6.6 | Turfgrass height and clip weight compared to the control (in words) ([1]; 7 days after treatment, trinexapac-ethyl 250 ppm, PBI-524 or PBI-429 50 ppm, alone or combined): reduced turfgrass height and clip weight compared to the control | Clip Weight [1, 5]: 1.7 g | Turfgrass height [1, 5]: 7.2 cm | Transpiration [2, 6]: 95 % of control | Transpiration [2, 7]: 95 % of control | Transpiration [2, 8]: 94 % of control | Transpiration [2, 9]: 94 % of control | Transpiration [2, 10]: 100 % of control | Transpiration [2, 11]: 94 % of control | Transpiration [2, 12]: 101 % of control | Transpiration [2, 13]: 94 % of control | Transpiration [2, 14]: 97 % of control | Transpiration [2, 15]: 97 % of control | Transpiration [2, 16]: 100 % of control | Transpiration [2, 17]: 95 % of control | Transpiration [2, 18]: 94 % of control | Transpiration [2, 19]: 101 % of control | Transpiration [2, 20]: 100 % of control | Transpiration [2, 21]: 94 % of control | Transpiration [2, 22]: 96 % of control | Transpiration [2, 23]: 93 % of control | Transpiration [2, 24]: 91 % of control | Transpiration [2, 25]: 96 % of control | Tomato leaf transpiration (in words) ([2]; PBI-429 25-200 ppm, trinexapac-ethyl 250-2000 ppm, alone or combined, 3-14 days after treatment): did not significantly inhibited tomato leaf transpiration | Plant height ([3]; 250 ppm trinexapac-ethyl, 0 days after treatment): 6.4 cm | Growth rate [3, 6]: 1.2 cm/day | Plant height [3, 6]: 9.9 cm | Growth rate [3, 7]: 1.0 cm/day | Plant height [3, 7]: 11.9 cm | Growth rate [3, 8]: 1.6 cm/day | Plant height [3, 8]: 15.1 cm | Growth rate [3, 9]: 1.5 cm/day | Plant height [3, 9]: 19.6 cm | Growth rate [3, 10]: 1.8 cm/day | Leaf number [3, 10]: 11.0 | Plant height [3, 10]: 26.9 cm | Plant height ([3]; 500 ppm trinexapac-ethyl, 0 days after treatment): 6.5 cm | Growth rate [3, 11]: 0.9 cm/day | Plant height [3, 11]: 9.3 cm | Growth rate [3, 12]: 0.8 cm/day | Plant height [3, 12]: 10.9 cm | Growth rate [3, 13]: 1.2 cm/day | Plant height [3, 13]: 13.3 cm | Growth rate [3, 14]: 1.4 cm/day | Plant height [3, 14]: 17.4 cm | Growth rate [3, 15]: 1.8 cm/day | Leaf number [3, 15]: 11.0 | Plant height [3, 15]: 24.4 cm | Plant height ([3]; 1000 ppm trinexapac-ethyl, 0 days after treatment): 6.5 cm | Growth rate [3, 16]: 0.7 cm/day | Plant height [3, 16]: 8.9 cm | Growth rate [3, 17]: 0.7 cm/day | Plant height [3, 17]: 10.3 cm | Growth rate [3, 18]: 1.0 cm/day | Plant height [3, 18]: 12.3 cm | Growth rate [3, 19]: 1.2 cm/day | Plant height [3, 19]: 15.8 cm | Growth rate [3, 20]: 1.8 cm/day | Leaf number [3, 20]: 11.0 | Plant height [3, 20]: 22.8 cm | Plant height ([3]; 2000 ppm trinexapac-ethyl, 0 days after treatment): 6.7 cm | Growth rate [3, 21]: 0.6 cm/day | Plant height [3, 21]: 7.9 cm | Growth rate [3, 22]: 0.6 cm/day | Plant height [3, 22]: 9.1 cm | Growth rate [3, 23]: 0.8 cm/day | Plant height [3, 23]: 10.7 cm | Growth rate [3, 24]: 1.0 cm/day | Plant height [3, 24]: 13.6 cm | Growth rate [3, 25]: 1.2 cm/day | Leaf number [3, 25]: 10.8 | Plant height [3, 25]: 18.3 cm | Tomato leaf number (in words) ([3]; 14 days after treatment, PBI-429 25-200 ppm, trinexapac-ethyl 250-2000 ppm, alone or combined): did not change the tomato leaf number | Tomato growth rate in terms of plant height (in words) [3, 26]: inhibited growth rate | Tomato plant height (in words) [3, 26]: decreased tomato plant height
